Reference: US12103946B2, “Steroid compounds as Treg modulators and uses thereof” (New York University, priority 2018, dated 2024)

Key:
[1] = tested on: naïve CD4+ T cells (Th1 or Th2 cells); test: In vitro Th1 and Th2 differentiation (IFN-γ, IL-4, T-bet, GATA3); format: cell-based, mouse; details: 20 μM, day 5
Description: In Vitro T Cell Culture. Naïve CD4^+ (CD62L^+ CD44^− CD25^− CD4^+) T cells were isolated from the spleens and the lymph nodes of mice of designated genotypes with FACS sorting. For certain experiments, naïve CD4^+ T cells were enriched using naïve CD4^+ T cell isolation kits (Miltenyi). Naïve CD4^+ T cells (40,000 cells) were cultured in a 96-well plate pre-coated with hamster IgG (MP Biomedicals) in T cell medium (RPMI, 10% fetal bovine serum, 25 mM glutamine, 55 μM 2-mercaptoethanol, 100 U/mL penicillin, […] streptomycin) supplemented with 0.25 μg/mL anti-CD3 (clone 145-2C11) and 1 μg/mL anti-CD28 (clone 37.51). For Th0 culture, T cells were cultured with the addition of 100 U/mL of IL-2 (PEPROTECH). For Th1 cell differentiation, T cells were cultured with the addition of 100 U/mL of IL-2, 10 μg/mL of anti-IL-4 (clone 11B11) and 10 ng/mL of IL-12 (PEPROTECH). For Th2 cell differentiation, T cells were cultured with the addition of 10 μg/mL of anti-IFNγ (clone XMG1.2) and 10 ng/mL of IL-4 (R&D Systems). For Th17 cell differentiation, T cells were cultured with the addition of 10 ng/mL of IL-6 (eBioscience) and 0.5 ng/mL of TGF-β (PEPROTECH). […]
Flow Cytometry. […] All flow cytometry analyses were performed on an LSR II flow cytometer (BD) and data were analyzed with FlowJo software (TreeStar).

[2] = Measurement of lipophilicity (octanol/ammonium bicarbonate partitioning, LC-MS); details: n-octanol / 50 mM ammonium bicarbonate, pH 8
Description: Measurement of lipophilicity. Partitioning Method: 2 μL of 10 mM stock solutions of each target compound was added to a 1 mL each of 50 mM ammonium bicarbonate (pH=8), and 1 mL of n-octanol in an Eppendorf tube. The resulting two-phase mixture was vortexed and then shaken for 18 h at 20° C. The two phases were then carefully separated into the aqueous sample (bottom layer), and organic sample (top-layer) and placed separately in autosampler vials and analyzed by LC-MS/MS. LC-MS Method: a Thermo q-Exactive Plus LC-MS equipped with an Ultimate 3000 HPLC was operated in negative ion mode after optimized to detect the [M− H]^− of the bile acids. […] A Dikma Inspire C8 column (3 μm particle size, 100 mm length, 4.6 mm ID) was used for analysis. Each injection was 5 μL, and a constant flow rate of 0.400 L/min was used. The gradient started at 0% B and was held constant for 2 minutes. Then the mobile phase composition was linearly changed to 100% B over 8 minutes and held at 100% for the following 5 minutes. The mobile phase composition was changed to 0% B over the following 0.1 minutes and the system was allowed to equilibrate to starting conditions over 1.9 minutes. Standards of all targets were used to establish retention times. Better than 2 ppm mass accuracy was obtained on all measurements. The LC-MS analysis was done in triplicate, while the partitioning was done once for each target's [M− H]^− ion. Calculation of log D: the total response of target in octanol was divided by the total response in the aqueous phase to get a partitioning coefficient. Then, log base 10 was taken and reported.

[3] = target: T1, recombinant human RORγt ligand-binding domain (LBD) (Homo sapiens, UniProt P51449); test: Microscale thermophoresis assay; details: MST, read-out: equilibrium dissociation constant (Kd)
T1 sequence (P51449 269-508 limits assumed): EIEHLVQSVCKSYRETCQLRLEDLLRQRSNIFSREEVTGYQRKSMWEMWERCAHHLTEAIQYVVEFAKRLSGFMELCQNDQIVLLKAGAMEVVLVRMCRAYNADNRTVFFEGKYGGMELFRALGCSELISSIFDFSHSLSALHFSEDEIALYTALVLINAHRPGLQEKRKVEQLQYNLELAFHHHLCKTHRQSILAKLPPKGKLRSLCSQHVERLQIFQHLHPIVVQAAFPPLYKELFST
Description: We next examined if 3-oxoLCA physically interacts with the RORγt protein in vitro. A microscale thermophoresis (MST) assay was performed with recombinant human RORγt ligand-binding domain (LBD). […] Next, we examined if 3-oxoLCA modulates the transcriptional activity of RORγt. We assayed the effect of the bile acids on firefly luciferase expression directed by a fusion protein of RORγt and Gal4-DBD (DNA-binding domain) in human embryonic kidney (HEK) 293 cells^14.
Microscale Thermophoresis Assay. The binding affinity of the compounds with RORγ ligand-binding domain (LBD) was analyzed by microscale thermophoresis (MST). Purified RORγ-LBD was labeled with the Monolith NT™ Protein Labeling Kit RED (NanoTemper Technologies). Serially-diluted compounds, with concentrations of 1 mM to 20 nM, were mixed with 55 nM labeled RORγ-LBD at room temperature and loaded into Monolith™ standard-treated capillaries. Binding was measured by monitoring the thermophoresis with 20% LED power and ‘Medium’ MST power on a Monolith NT.115 instrument (Nano Temper Technologies) with the following time setting: 5s Fluo, Before; 20s MST On; and 5s Fluo, After. Kd values were fitted using the NT Analysis software (Nano Temper Technologies).

- logD at 18 h [2]: 2.4
- Kd [3]: ~1000 nM
SMILES: C[C@H](CCC(=O)O)[C@H]1CC[C@H]2[C@@H]3CC[C@@H]4CC(=O)CC[C@]4(C)[C@H]3CC[C@]12C [3-oxoLCA, 3-oxolithocholic acid]
- T cell differentiation into Th1 or Th2 cells [1]: neither compound affected T cell differentiation into Th1 or Th2 cells
